Assay results as given in patent US20050209157A1, “Short bioactive peptides and methods for their use” (priority 2001, published 2005).
Converted amounts (≈) assume the structure as drawn. No end group written: not given here.

Assays:
[1] = system: Escherichia coli ATCC 25922; assay: Antimicrobial assay I, modified protocol (tryptic soy broth), MBC; conditions: minimum bactericidal concentration, Table 4
[2] = system: Stapholococcus aureus ATCC 25923; assay: as above; conditions: minimum bactericidal concentration, Table 4
Description: (§1) The preparation of all media, stock solutions, and dilutions took place in a laminar flow hood to prevent contamination. Bacterial cells were freshly grown on antibiotic medium 2 agar slants (pH 7.0 at 25° C.). Bacteria were suspended and diluted in antibiotic medium 3 to about 10^4 cfu/ml and used as the inoculum. Sample solutions (100 μl/well) were added to plates according to the plate layout. Inoculum (100 μl/well) was added to achieve a final concentration of 5×10^3 cfu/ml. Negative controls received 100 μl saline and 100 μl growth medium. Positive controls received 100 μl saline and 100 μl inoculum. Bacterial plates were incubated at 37° C. for 24 hours.
(§2) However, the data for Table 4 were obtained with a modified protocol wherein the medium was tryptic soy broth, inocolum strength was approximately 10^4 CFU per ml, and values determined were minimum bactericidal concentrations (MBC) or minimum fungicidal concentrations (MFC).
(§3) MBC or MFC values are in μg/mL. E. coli is Escherichia coli ATCC accession number 25922; P. aerug is Pseudomonas aeruginosa ATCC accession number 27853, S. aur. is Stapholococcus aureus ATCC accession number 25923; Candida is Candida albicans ATCC accession number 10231.

[3] = system: Candida albicans ATCC 10231; assay: Antimicrobial assay I, modified protocol (tryptic soy broth), MFC; conditions: minimum fungicidal concentration, Table 4
[4] = system: Pseudomonas aeruginosa ATCC 27853; assay: Antimicrobial assay I, modified protocol (tryptic soy broth), MBC; conditions: minimum bactericidal concentration, Table 4
Description: as §1, §2, §3

Compound | MBC E. coli A.25922 [1] | MBC S. aur A.25923 [2] | MFC Candida A.10231 [3] | MBC P. aerug A.27853 [4]
CC(C)C[C@H](NC(=O)[C@H](C)NC(=O)[C@H](C)NC(=O)[C@H](CCCCN)NC(=O)[C@H](C)NC(=O)[C@H](CC(C)C)NC(=O)[C@H](CCCCN)NC(=O)[C@H](CCCCN)NC(=O)[C@H](C)NC(=O)[C@H](CC(C)C)NC(=O)[C@H](CCCCN)NC(=O)[C@H](CCCCN)NC(=O)[C@H](C)NC(=O)[C@@H](N)Cc1ccccc1)C(N)=O [compound 76] | 40 µg/mL (≈ 26.7 µM) | >55 µg/mL | >50 µg/mL | >55 µg/mL
CC(C)C[C@H](NC(=O)[C@H](C)NC(=O)[C@H](CC(C)C)NC(=O)[C@H](C)NC(=O)[C@H](CCCCN)NC(=O)[C@H](CCCCN)NC(=O)[C@H](C)NC(=O)[C@H](CC(C)C)NC(=O)[C@H](CCCCN)NC(=O)[C@H](C)NC(=O)[C@H](CC(C)C)NC(=O)[C@H](CCCCN)NC(=O)[C@H](CCCCN)NC(=O)[C@H](C)NC(=O)[C@@H](N)Cc1ccccc1)C(N)=O [compound 39] | >40 µg/mL | >40 µg/mL | – | >40 µg/mL
CC(C)C[C@H](NC(=O)[C@H](CCCCN)NC(=O)[C@H](C)NC(=O)[C@H](CCCCN)NC(=O)[C@H](C)NC(=O)[C@H](CC(C)C)NC(=O)[C@H](CCCCN)NC(=O)[C@H](C)NC(=O)[C@H](CC(C)C)NC(=O)[C@H](CC(C)C)NC(=O)[C@H](CCCCN)NC(=O)[C@H](C)NC(=O)[C@@H](N)Cc1ccccc1)C(N)=O [compound 65] | >55 µg/mL | >55 µg/mL | >50 µg/mL | >50 µg/mL
CC(C)C[C@H](NC(=O)[C@H](CCCCN)NC(=O)[C@H](CC(C)C)NC(=O)[C@H](C)NC(=O)[C@H](CCCCN)NC(=O)[C@H](C)NC(=O)[C@H](CC(C)C)NC(=O)[C@H](CC(C)C)NC(=O)[C@H](CCCCN)NC(=O)[C@H](CCCCN)NC(=O)[C@H](C)NC(=O)[C@@H](N)Cc1ccccc1)C(N)=O [compound 110] | 8 µg/mL (≈ 5.96 µM) | >50 µg/mL | >50 µg/mL | >50 µg/mL
CC(C)C[C@H](NC(=O)[C@H](CCCCN)NC(=O)[C@H](CCCCN)NC(=O)[C@H](C)NC(=O)[C@H](CC(C)C)NC(=O)[C@H](CCCCN)NC(=O)[C@H](C)NC(=O)[C@H](CC(C)C)NC(=O)[C@H](CC(C)C)NC(=O)[C@H](CCCCN)NC(=O)[C@H](C)NC(=O)[C@@H](N)Cc1ccccc1)C(N)=O [compound 49] | 40 µg/mL (≈ 29.8 µM) | 50 µg/mL (≈ 37.2 µM) | 30 µg/mL (≈ 22.3 µM) | 30 µg/mL (≈ 22.3 µM)
CC(C)C[C@H](NC(=O)[C@H](CCCCN)NC(=O)[C@H](CCCCN)NC(=O)[C@H](C)NC(=O)[C@H](CC(C)C)NC(=O)[C@H](CCCCN)NC(=O)[C@H](C)NC(=O)[C@H](CC(C)C)NC(=O)[C@H](CCCCN)NC(=O)[C@H](CCCCN)NC(=O)[C@H](C)NC(=O)[C@@H](N)Cc1ccccc1)C(N)=O [compound 106] | 50 µg/mL (≈ 36.8 µM) | – | >50 µg/mL | >50 µg/mL
CC(C)C[C@H](NC(=O)[C@H](CCCCN)NC(=O)[C@H](CC(C)C)NC(=O)[C@H](CCCCN)NC(=O)[C@H](CC(C)C)NC(=O)[C@H](C)NC(=O)[C@H](CCCCN)NC(=O)[C@H](C)NC(=O)[C@H](CC(C)C)NC(=O)[C@H](CC(C)C)NC(=O)[C@H](CCCCN)NC(=O)[C@H](C)NC(=O)[C@@H](N)Cc1ccccc1)C(N)=O [compound 101] | 300 µg/mL (≈ 206 µM) | >50 µg/mL | 40 µg/mL (≈ 27.5 µM) | >50 µg/mL
FAKLFAKLAKKFAL-NH2 [compound 121] | INACT | INACT | 50 µg/mL | INACT
CC(C)C[C@H](NC(=O)[C@H](C)NC(=O)[C@H](CCCCN)NC(=O)[C@H](CCCCN)NC(=O)[C@H](C)NC(=O)[C@H](CC(C)C)NC(=O)[C@H](CCCCN)NC(=O)[C@H](C)NC(=O)[C@H](CC(C)C)NC(=O)[C@H](CC(C)C)NC(=O)[C@H](CCCCN)NC(=O)[C@H](C)NC(=O)[C@@H](N)Cc1ccccc1)C(N)=O [compound 54] | 15 µg/mL (≈ 10.6 µM) | 15 µg/mL (≈ 10.6 µM) | 30 µg/mL (≈ 21.2 µM) | 40 µg/mL (≈ 28.3 µM)
CC[C@H](C)[C@H](NC(=O)CNC(=O)[C@H](CC(C)C)NC(=O)[C@H](CCCCN)NC(=O)[C@H](C)NC(=O)[C@H](CC(C)C)NC(=O)[C@H](C)NC(=O)[C@@H](NC(=O)[C@H](CCCCN)NC(=O)[C@H](C)NC(=O)[C@@H](NC(=O)[C@@H](N)CCCCN)[C@@H](C)CC)C(C)C)C(=O)NCC(=O)N[C@@H](C)C(=O)N[C@H](C(=O)N[C@@H](CC(C)C)C(=O)N[C@@H](CCCCN)C(=O)N[C@H](C(=O)N[C@@H](CC(C)C)C(=O)N[C@H](C(=O)N[C@H](C(=O)NCC(=O)N[C@@H](CC(C)C)C(N)=O)[C@@H](C)O)[C@@H](C)O)C(C)C)C(C)C [compound 105] | 25 µg/mL (≈ 11 µM) | – | >50 µg/mL | >50 µg/mL
CC[C@H](C)[C@H](NC(=O)CNC(=O)[C@H](CC(N)=O)NC(=O)[C@H](CCCNC(=N)N)NC(=O)[C@@H](NC(=O)[C@H](CC(N)=O)NC(=O)[C@H](CCCNC(=N)N)NC(=O)CNC(=O)[C@@H](NC(=O)[C@H](CCCCN)NC(=O)[C@H](CCC(=O)O)NC(=O)[C@@H](NC(=O)[C@H](CCCCN)NC(=O)[C@H](CCCCN)NC(=O)[C@H](Cc1ccccc1)NC(=O)[C@@H](NC(=O)[C@H](CCCCN)NC(=O)[C@H](Cc1c[nH]c2ccccc12)NC(=O)[C@H](CCCCN)NC(=O)[C@@H]1CCCN1C(=O)[C@@H](N)CCSC)C(C)C)[C@@H](C)CC)C(C)C)[C@@H](C)CC)C(=O)N[C@H](C(=O)N[C@@H](CCCCN)C(=O)N[C@@H](C)C(=O)NCC(=O)N1CCC[C@H]1C(=O)N[C@@H](C)C(=O)N[C@H](C(=O)N[C@@H](C)C(=O)N[C@H](C(=O)N[C@@H](CC(C)C)C(=O)NCC(=O)N[C@@H](CCC(=O)O)C(=O)N[C@@H](C)C(=O)N[C@@H](CCCCN)C(=O)N[C@@H](C)C(=O)N[C@@H](CC(C)C)C(=O)NCC(=O)O)C(C)C)[C@@H](C)CC)C(C)C [compound 5] | 50 µg/mL (≈ 12.2 µM) | 40 µg/mL (≈ 9.78 µM) | – | >60 µg/mL
CC(C)C[C@H](NC(=O)[C@H](C)NC(=O)[C@H](CC(C)C)NC(=O)[C@H](CCCCN)NC(=O)[C@H](C)NC(=O)[C@H](CC(C)C)NC(=O)[C@H](CCCCN)NC(=O)[C@H](CCCCN)NC(=O)[C@H](CC(C)C)NC(=O)[C@H](CCCCN)NC(=O)[C@H](CCCCN)NC(=O)[C@H](C)NC(=O)[C@H](CC(C)C)NC(=O)[C@H](CCCCN)NC(=O)[C@H](CCCCN)NC(=O)[C@H](C)NC(=O)[C@@H](N)Cc1ccccc1)C(=O)N[C@@H](C)C(=O)N[C@@H](CCCCN)C(N)=O [compound 41] | 40 µg/mL (≈ 19 µM) | 40 µg/mL (≈ 19 µM) | – | 40 µg/mL (≈ 19 µM)
CC[C@H](C)[C@H](NC(=O)CNC(=O)[C@H](CC(N)=O)NC(=O)[C@H](CCCNC(=N)N)NC(=O)[C@@H](NC(=O)[C@H](CC(N)=O)NC(=O)[C@H](CCCNC(=N)N)NC(=O)CNC(=O)[C@@H](NC(=O)[C@H](CCCCN)NC(=O)[C@H](CCC(=O)O)NC(=O)[C@@H](NC(=O)[C@H](CCCCN)NC(=O)[C@H](CCCCN)NC(=O)[C@H](Cc1ccccc1)NC(=O)[C@@H](NC(=O)[C@H](CCCCN)NC(=O)[C@H](Cc1c[nH]c2ccccc12)NC(=O)[C@H](CCCCN)NC(=O)[C@@H]1CCCN1C(=O)[C@@H](N)CCSC)C(C)C)[C@@H](C)CC)C(C)C)[C@@H](C)CC)C(=O)N[C@H](C(=O)N[C@@H](CCCCN)C(=O)N[C@@H](C)C(=O)NCC(=O)N1CCC[C@H]1C(=O)N[C@@H](C)C(=O)N[C@H](C(=O)N[C@@H](C)C(=O)N[C@H](C(=O)N[C@@H](CC(C)C)C(=O)NCC(=O)N[C@@H](CCC(=O)O)C(=O)N[C@@H](C)C(=O)N[C@@H](CCCCN)C(=O)N[C@@H](C)C(=O)N[C@@H](CC(C)C)C(=O)NCC(N)=O)C(C)C)[C@@H](C)CC)C(C)C [compound 12] | 50 µg/mL (≈ 12.2 µM) | 75 µg/mL (≈ 18.3 µM) | – | >60 µg/mL
CC[C@H](C)[C@H](NC(=O)[C@H](CC(N)=O)NC(=O)[C@H](CCCNC(=N)N)NC(=O)CNC(=O)[C@H](CCSC)NC(=O)[C@H](CCCCN)NC(=O)[C@H](CCC(=O)O)NC(=O)[C@@H](NC(=O)[C@H](CCCCN)NC(=O)[C@H](CC(C)C)NC(=O)[C@H](Cc1ccccc1)NC(=O)[C@@H](NC(=O)[C@H](CCCCN)NC(=O)[C@H](CCC(=O)O)NC(=O)[C@H](CCCCN)NC(=O)[C@@H]1CCCN1C(=O)[C@@H](N)CCSC)C(C)C)[C@@H](C)CC)C(=O)N[C@@H](CCCNC(=N)N)C(=O)N[C@@H](CC(N)=O)C(N)=O [compound 107] | – | >50 µg/mL | >50 µg/mL | >50 µg/mL
CC(C)C[C@H](NC(=O)[C@H](C)NC(=O)[C@H](CCCCN)NC(=O)[C@H](C)NC(=O)[C@H](CC(C)C)NC(=O)[C@H](CCCCN)NC(=O)[C@H](CCCCN)NC(=O)[C@H](C)NC(=O)[C@H](CC(C)C)NC(=O)[C@H](CCCCN)NC(=O)[C@H](C)NC(=O)[C@H](CC(C)C)NC(=O)[C@H](CCCCN)NC(=O)[C@H](CCCCN)NC(=O)[C@H](C)NC(=O)[C@@H](N)Cc1ccccc1)C(N)=O [compound 109] | – | 80 µg/mL (≈ 45.9 µM) | >50 µg/mL | –
CC(C)C[C@H](NC(=O)[C@H](C)NC(=O)[C@H](CCCCN)NC(=O)[C@H](CCCCN)NC(=O)[C@H](C)NC(=O)[C@H](CCCCN)NC(=O)[C@H](CCCCN)NC(=O)[C@H](CC(C)C)NC(=O)[C@H](C)NC(=O)[C@H](CCCCN)NC(=O)[C@H](CCCCN)NC(=O)[C@H](C)NC(=O)[C@H](CC(C)C)NC(=O)[C@H](C)NC(=O)[C@@H](N)Cc1ccccc1)C(N)=O [compound 40] | 30 µg/mL (≈ 18.4 µM) | >40 µg/mL | – | 40 µg/mL (≈ 24.6 µM)
